Calls of active or inactive are those of the source. The calls are words filed in the database; no cut-off is given here.
Key:
Cysteine protease ATG4B [1] = molecular target: T1, Cysteine protease ATG4B (Homo sapiens, UniProt Q9Y4P1); assay: Inhibition of recombinant ATG4B (unknown origin) expressed in Escherichia coli BL21(DE3) pLysS cells using LC3-GST as substrate incubated for 3 hrs by coomassie brilliant blue staining based assay
T1 sequence (Q9Y4P1 whole entry): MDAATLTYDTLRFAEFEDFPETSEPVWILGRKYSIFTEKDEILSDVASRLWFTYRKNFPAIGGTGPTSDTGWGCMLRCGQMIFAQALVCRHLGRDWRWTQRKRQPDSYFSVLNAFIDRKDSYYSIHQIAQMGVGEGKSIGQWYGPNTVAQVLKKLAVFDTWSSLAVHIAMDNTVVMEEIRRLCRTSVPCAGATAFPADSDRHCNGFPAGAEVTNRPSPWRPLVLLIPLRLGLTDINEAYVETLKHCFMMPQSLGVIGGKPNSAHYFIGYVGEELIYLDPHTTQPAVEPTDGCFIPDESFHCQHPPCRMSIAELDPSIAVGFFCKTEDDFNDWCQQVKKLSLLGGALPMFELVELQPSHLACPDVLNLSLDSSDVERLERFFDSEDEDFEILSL

Phospholipase A2 = Phospholipase A2 (Homo sapiens, UniProt P04054); assay: Inhibition of PLA2 (unknown origin)
Sequence of Phospholipase A2 (P04054 whole entry): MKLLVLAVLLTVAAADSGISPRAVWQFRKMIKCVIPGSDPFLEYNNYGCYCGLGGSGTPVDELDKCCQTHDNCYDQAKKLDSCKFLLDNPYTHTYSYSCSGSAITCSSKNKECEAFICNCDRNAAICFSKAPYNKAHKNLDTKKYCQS

Homo sapiens = species on record: Homo sapiens; assay: Selectivity ratio of IC50 for inhibition of PLA2 (unknown origin) to IC50 for inhibition of recombinant ATG4B (unknown origin) expressed in Escherichia coli BL21(DE3) pLysS cells
[2] = molecular target: T2, Cysteine protease ATG4B (Homo sapiens) (UniProt Q9Y4P1); assay: Reversible inhibition of recombinant ATG4B (unknown origin) expressed in Escherichia coli BL21(DE3) pLysS cells at 100 uM using LC3-GST as substrate preincubated for 30 mins with 0.3 uM LC3-GST followed by dialysis and again incubated with 3 uM LC3-GST for 15 mins by coomassie brilliant blue staining based assay; details: time 45.0 min
T2 sequence (whole entry): T1 sequence (Q9Y4P1 whole entry)

[3] = molecular target: T2, Cysteine protease ATG4B (Homo sapiens); assay: Inhibition of recombinant ATG4B (unknown origin) expressed in Escherichia coli BL21(DE3) pLysS cells at 10 uM using LC3-GST as substrate incubated for 3 hrs by coomassie brilliant blue staining based assay
[4] = molecular target: T2, Cysteine protease ATG4B (Homo sapiens); assay: Inhibition of recombinant ATG4B (unknown origin) expressed in Escherichia coli BL21(DE3) pLysS cells at 20 to 50 uM using LC3-GST as substrate by coomassie brilliant blue staining based assay; details: dose 20-50 µM, time 15-180 min, TDE = time-dependent effect
Cysteine protease ATG4B [5] = molecular target: T1, Cysteine protease ATG4B; assay: Inhibition of recombinant ATG4B (unknown origin) expressed in Escherichia coli BL21(DE3) pLysS cells assessed as inhibition constant using LC3-GST as substrate incubated for 3 hrs by coomassie brilliant blue staining based assay
LNCaP [6] = assay: Inhibition of AFM induced autophagy in human LNCaP cells assessed as restoration of p62 expression at 5 uM by Western blot analysis; assay type: functional, cell-based
LNCaP [7] = assay: Inhibition of AFM induced autophagy in human LNCaP cells assessed as suppression of autophagosome by DAP green staining based assay; assay type: functional, cell-based
LNCaP [8] = assay: Inhibition of abiraterone induced autophagy in human LNCaP cells at 10 uM preincubated for 2 hrs followed by abiraterone addition and measured after 24 hrs by DAP green staining based assay; assay type: functional, cell-based; details: time 26.0 hrs
LNCaP [9] = assay: Inhibition of enzalutamide induced autophagy in human LNCaP cells at 10 uM preincubated for 2 hrs followed by enzalutamide addition and measured after 24 hrs by DAP green staining based assay; assay type: functional, cell-based; details: time 26.0 hrs
LNCaP [10] = assay: Induction of apoptosis in human LNCaP cells assessed as increase in cleaved capase-9 expression at 10 uM preincubated for 2 hrs followed by abiraterone addition and measured after 24 hrs by Western blotting analysis; assay type: functional, cell-based; details: time 26.0 hrs
LNCaP [11] = assay: Induction of apoptosis in human LNCaP cells assessed as increase in cleaved PARP expression at 10 uM preincubated for 2 hrs followed by abiraterone addition and measured after 24 hrs by Western blotting analysis; assay type: functional, cell-based; details: time 26.0 hrs
[12] = molecular target: T2, Cysteine protease ATG4B (Homo sapiens); assay: Inhibition of recombinant ATG4B (unknown origin) expressed in Escherichia coli BL21(DE3) pLysS cells at 100 uM using LC3-GST as substrate incubated for 3 hrs by coomassie brilliant blue staining based assay
LNCaP [13] = assay: Induction of autophagy in human LNCaP cells assessed as increase in GABARAP2 level at 10 uM preincubated for 2 hrs followed by medium change into aminoacid free medium for 3 hrs by immunoblotting analysis; assay type: functional, cell-based; details: time 5.0 hrs
LNCaP [14] = assay: Inhibition of AFM induced autophagy in human LNCaP cells assessed as decrease in autophagic vesicles at 1 uM preincubated for 2 hrs followed by medium change into aminoacid free medium for 3 hrs by DAP green staining based assay; assay type: functional, cell-based; details: time 5.0 hrs
LNCaP [15] = assay: Induction of apoptosis in human LNCaP cells assessed as increase in cleaved PARP level at 5 uM preincubated for 2 hrs followed by apalutamide addition and measured after 24 hrs by immunoblotting analysis; assay type: functional, cell-based; details: time 26.0 hrs
LNCaP [16] = assay: Induction of apoptosis in human LNCaP cells assessed as increase in cleaved PARP level at 5 uM preincubated for 2 hrs followed by abiraterone addition and measured after 24 hrs by immunoblotting analysis; assay type: functional, cell-based; details: time 26.0 hrs
LNCaP [17] = assay: Inhibition of AFM induced autophagy in human LNCaP cells assessed as restoration of p62 expression preincubated for 2 hrs followed by medium change into aminoacid free medium for 24 hrs by immunoblotting analysis; assay type: functional, cell-based; details: dose 1-10 µM, time 26.0 hrs, DDE = dose-dependent effect
[18] = Inhibition of AFM induced autophagy in human LNCaP cells assessed as decrease in autophagic vesicles at 5 uM preincubated for 2 hrs followed by medium change into aminoacid free medium for 3 hrs by DAP green staining based assay; assay type: functional; details: time 5 hrs
LNCaP [19] = assay: Induction of apoptosis in human LNCaP cells assessed as increase in cleaved PARP level at 5 uM preincubated for 2 hrs followed by cabazitaxel addition and measured after 24 hrs by immunoblotting analysis; assay type: functional, cell-based; details: time 26.0 hrs
LNCaP [20] = assay: Induction of apoptosis in human LNCaP cells assessed as increase in cleaved PARP level at 5 uM preincubated for 2 hrs followed by enzalutamide addition and measured after 24 hrs by immunoblotting analysis; assay type: functional, cell-based; details: time 26.0 hrs
LNCaP [21] = assay: Anticancer activity against human LNCaP cells assessed as reduction in cell viability incubated for 72 hrs by alamar blue assay; assay type: functional, cell-based; details: DDE = dose-dependent effect
LNCaP [22] = assay: Induction of apoptosis in human LNCaP cells assessed PARP cleavage at 10 uM incubated for 24 hrs by immunoblotting analysis; assay type: functional, cell-based
LNCaP [23] = assay: Induction of autophagy in human LNCaP cells assessed as increase in Ser403-phosphorylated P62 level at 1 to 10 uM incubated for 24 hrs by Western blot analysis; assay type: functional, cell-based; details: dose 1-10 µM
LNCaP [24] = assay: Induction of autophagy in human LNCaP cells assessed as increase in LC3-2 level at 1 to 10 uM incubated for 24 hrs by Western blot analysis; assay type: functional, cell-based; details: dose 1-10 µM
LNCaP [25] = assay: Induction of apoptosis in human LNCaP cells transfected with Atg4B siRNA at 10 uM incubated for 24 hrs by immunoblotting analysis; assay type: functional, cell-based
LNCaP [26] = assay: Induction of apoptosis in human LNCaP cells assessed as increase in cleaved capase-9 expression at 10 uM preincubated for 2 hrs followed by enzalutamide addition and measured after 24 hrs by Western blotting analysis; assay type: functional, cell-based; details: time 26.0 hrs
LNCaP [27] = assay: Induction of apoptosis in human LNCaP cells assessed as increase in cleaved PARP expression at 10 uM preincubated for 2 hrs followed by enzalutamide addition and measured after 24 hrs by Western blotting analysis; assay type: functional, cell-based; details: time 26.0 hrs

Row | IC50 (Cysteine protease ATG4B [1]) | IC50 (Phospholipase A2) | Structure (SMILES) | Ratio IC50 (Homo sapiens) | further results
1 | 13 µM | 1.3 µM | CCCCCCCCCCCCc1ccc(C(=O)/C=C/C(=O)O)cc1 | 24 | 
2 | 26 µM | 5.9 µM | CCCCCCCc1ccc(C(=O)/C=C/C(=O)O)cc1 | 56 | 
3 | 580 µM |  | O=C(O)/C=C/C(=O)c1ccccc1 |  | 
4 | 21 µM | 7.1 µM | CCCCCCCCCCCCCc1ccc(C(=O)/C=C/C(=O)O)cc1 | 85 | 
5 | 13 µM | 1.6 µM | CCCCCCCCCCc1ccc(C(=O)/C=C/C(=O)O)cc1 | 30 | 
6 | 12 µM | 0.049 µM | CCCCCCCCCCCCCCCCCCc1ccc(C(=O)/C=C/C(=O)O)cc1 | 1 | inhibition [2]: Active; inhibition [3]: Active; inhibition [4]: Tde; Ki (Cysteine protease ATG4B [5]): 4.6 µM; inhibition (LNCaP [6]): Active; inhibition (LNCaP [7]): Active; inhibition (LNCaP [8]): Active; inhibition (LNCaP [9]): Active; Activity (LNCaP [10]): Active; Activity (LNCaP [11]): Active; inhibition [12]: Active
7 | 36 µM | 30 µM | CCCCCc1ccc(C(=O)/C=C/C(=O)O)cc1 | 200 | 
8 | 47 µM |  | CCCCCCCCCCCCCCCCCc1ccc(C(=O)/C=C/C(=O)O)cc1 |  | 
9 | 42 µM |  | CCCCCCCCCCCCCCCCCCCCCc1ccc(C(=O)/C=C/C(=O)O)cc1 |  | 
10 | 73 µM | 0.35 µM | CCCCCCCCCCCCCCCCCCCc1ccc(C(=O)/C=C/C(=O)O)cc1 | 12 | 
11 | 21 µM | 8 µM | CCCCCCCCCc1ccc(C(=O)/C=C/C(=O)O)cc1 | 93 | 
12 |  |  | CCN(CC)CCCC(C)Nc1ccnc2cc(Cl)ccc12 (stereo unspecified) |  | Activity (LNCaP [13]): Active
13 | 46 µM | 5.4 µM | CCCCCCCCCCCCCCCc1ccc(C(=O)/C=C/C(=O)O)cc1 | 29 | 
14 | 11 µM | 3.5 µM | CCCCCCCCCCCc1ccc(C(=O)/C=C/C(=O)O)cc1 | 80 | inhibition (LNCaP [14]): Active; Activity (LNCaP [15]): Active; Ki (Cysteine protease ATG4B [5]): 3.1 µM; Activity (LNCaP [16]): Active; inhibition (LNCaP [17]): Dde; inhibition at 5 µM [18]: 100%; Activity (LNCaP [19]): Active; Activity (LNCaP [20]): Active
15 | 130 µM |  | CCCc1ccc(C(=O)/C=C/C(=O)O)cc1 |  | 
16 |  |  | C[C@]12CC[C@H](O)CC1=CC[C@@H]1[C@@H]2CC[C@]2(C)C(c3cccnc3)=CC[C@@H]12 |  | Activity (LNCaP [21]): Dde; Activity (LNCaP [22]): Active; Activity (LNCaP [23]): Active; Activity (LNCaP [24]): Active; Activity (LNCaP [25]): Active; Activity (LNCaP [26]): Active; Activity (LNCaP [27]): Active
